Measured values from article PMC11361989, “A simple HPLC–MS/MS method for the determination of polymyxin B in human plasma and its application in the pharmacokinetic study in elderly patients infected with multidrug-resistant Gram-negative bacteria” (Frontiers in Pharmacology, 2024).

What was measured:
[1] = Stability of PB1 and PB2 in human plasma under different storage conditions; conditions: human plasma: 24 h at room temperature (25°C), 24 h at 4°C (post preparative), three freeze–thaw cycles, 85 days at −70°C
Description: The stock solutions of the calibrators and quality control (QC) samples should be prepared separately in the same way. The PB stock solution for calibrators and QC samples was prepared in water (1% FA) at 400.48 μg/mL for PB1 and 40.84 μg/mL for PB2. Consequently, working solutions for construction of calibrators and QC were prepared by serially diluting the stock solution with a 1% aqueous solution of FA. The concentrations of the working solutions for calibrators were 10.01, 30.03, 50.05, 100.12, 150.18, and 200.24 μg/mL for PB1 and 1.02, 3.06, 5.10, 10.21, 15.31, and 20.42 μg/mL for PB2. The concentrations of working solutions for QCs were prepared at 20.02 μg/mL (LQC), 90.11 μg/mL (MQC), and 180.22 μg/mL (HQC) for PB1 and 2.04 μg/mL (LQC), 9.18 μg/mL (MQC), and 18.36 μg/mL (HQC) for PB2. The working solution of IS (10.00 μg/mL) was prepared using methanol. All the above solutions were stored at −70°C. The calibrators and QC samples were obtained by spiking 90 μL of blank plasma with 10 μL of working solution at the corresponding concentration. The standard curves were in the range of 1.00–20.02 μg/mL and 0.10–2.04 μg/mL for PB1 and PB2, respectively.
Typically, 100 μL of the plasma sample was mixed with 10 μL IS working solution, and then, 300 μL 0.1% FA in methanol was added to the sample for protein precipitation. The mixture was vortexed for 3 min and centrifuged in an Eppendorf 5415D microcentrifuge (Eppendorf, Hamburg, Germany) at 11,000 g rpm for 10 min. Subsequently, 200 μL of the supernatant was transferred into a clean polypropylene tube and diluted with 150 μL of 0.1% FA in water. The mixture solution was vortexed for 3 min and centrifuged at 11,000 rpm for 10 min using the same centrifuge. Finally, 200 μL of the supernatant was transferred into an injection bottle, and 10 μL was injected into the HPLC–MS/MS for analysis.
The stability of the working solutions of PB1 and PB2 was evaluated. The short-term stability and long-term stability of PB1 and PB2 in human plasma were evaluated under the following conditions: placed at room temperature or 4°C for 24 h, frozen and thawed three times, and stored at −70°C for 85 days. The stability evaluation was conducted for both LQC and HQC concentrations.

[2] = Pharmacokinetic study of intravenous PB in elderly patients infected with multidrug-resistant Gram-negative bacteria; format: in vivo, human; conditions: for AUCss, 24 h: elderly patients, steady state, first-order elimination-based equation, mean ± SD; for Ctrough: human, in vivo
Description: This study was approved by the Medical Ethics Committee of Shandong Provincial Hospital (No. 2021–356). Written informed consent was obtained from all patients or their legal representatives. Herein, we included 14 elderly patients (65≤ Age ≤95) who received intravenous PB injections (polymyxin B sulfate for injection, Shanghai First Biochemical Pharmaceutical Co., Ltd.) in the period between April 2021 and January 2023 for treating infections caused by multidrug-resistant Gram-negative bacteria. These patients were divided into two groups: in the first group, eight patients received 100 mg loading dose combined with 75 mg maintenance dose q 12 h, and in the other group, six subjects received a 150-mg loading dose and a 100-mg maintenance dose q 12 h. The duration of the intravenous treatment was 1 h. The dosage for all patients was decided by the clinician according to the clinical response. Patients undergoing plasma exchange, continuous renal replacement therapy, or extracorporeal membrane oxygenation were excluded. Clinical and demographic data (age, gender, body weight, pathogens, infection sites, and PB-treatment history) were collected from electronic medical records. Laboratory data, including serum creatinine (Scr), estimated glomerular filtration rate (eGFR), and creatinine clearance (CrCL), were collected on the sampling day. CrCL was calculated using the Cockcroft–Gault equation. On the third day after the administration of the loading dose, blood samples were collected at pre-dose (0 h) and 0.5, 1, 2, 3, 6, 8, and 12 h after the start of administration using EDTA tubes and processed to obtain plasma samples. A total of 112 blood samples were collected and detected, and all of these were stored at −70°C. After analysis by the validated methods, PK parameters were calculated by non-compartmental analysis using Phoenix WinNonlin software 8.3 (Certara, United States).
After validation, the HPLC–MS/MS method was applied to the PK study of PB in elderly patients infected with multidrug-resistant Gram-negative bacteria. A total of 112 blood samples were collected from 14 elderly patients receiving intravenous PB treatment. […] The concentration of PB is the sum of the concentrations of PB1 and PB2 calculated, and it is based on the formula provided by [Liu et al. (2023)]. The individual AUCss, 24 h values were estimated using the first-order elimination-based equation method ([Begg et al., 1995]; [Pai et al., 2014]; [Liu et al., 2023]).

[3] = population PK, elderly patients; ref Wang et al., 2022; cited from earlier work
Description: Compared to the administration of a fixed dose of PB, the administration of a body-weight-based dose of PB increases the efficacy of the antibiotic ([Sandri et al., 2013]; [Miglis et al., 2018]; [Tsuji et al., 2019]; [Wang et al., 2021a]). However, clinicians usually administer a fixed dose of PB due to challenges in obtaining accurate body weight information about critically ill patients. Moreover, fixed loading and maintenance doses of polymyxin B appear more appropriate than weight-based dosing regimens in patients within the 45–90-kg BW range ([Hanafin et al., 2023]). This study is the fir ...

[4] = Kidney function indicators (Scr, eGFR) during PB therapy; format: in vivo, human; conditions: elderly patients, 100-mg maintenance dose, after an average of 3.83 days
Description: This study was approved by the Medical Ethics Committee of Shandong Provincial Hospital (No. 2021–356). Written informed consent was obtained from all patients or their legal representatives. Herein, we included 14 elderly patients (65≤ Age ≤95) who received intravenous PB injections (polymyxin B sulfate for injection, Shanghai First Biochemical Pharmaceutical Co., Ltd.) in the period between April 2021 and January 2023 for treating infections caused by multidrug-resistant Gram-negative bacteria. […] CrCL was calculated using the Cockcroft–Gault equation. […] A total of 112 blood samples were collected and detected, and all of these were stored at −70°C. After analysis by the validated methods, PK parameters were calculated by non-compartmental analysis using Phoenix WinNonlin software 8.3 (Certara, United States).
The recommended AUCss, 24 h range of PB, which is based on the therapeutic window of the drug, is between 50 and 100 μg h/mL ([Tsuji et al., 2019]; [Liu et al., 2023]). […] To avoid the MS/MS crosstalk among the above-mentioned analytes undermining their detection sensitivity and quantitative accuracy, each analyte should be quantified with satisfactory chromatographic separation. […] However, crosstalk still should be measured in a high concentration level. […]

Polymyxin B [PB]
Stability in human plasma (in words) [1]: stable | AUCss, 24 h ([2]; maintenance 75 mg q12h, n = 8): 117.70 ± 37.03 µg·h/mL | AUCss, 24 h ([2]; maintenance 100 mg q12h, n = 6): 152.73 ± 70.09 µg·h/mL | Ctrough ([2]; 75 mg): 2650 ± 1320 ng/mL | Ctrough ([2]; 100 mg): 3400 ± 1870 ng/mL | typical value of CL [3]: 1.87 L/h | mean Scr value during therapy [4]: 111.82 µmol/L | mean eGFR value during therapy [4]: 66.00 mL/min
